# In ChEMBL document CHEMBL1201862, “PubChem BioAssay data set” (2004):
#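 Cultured in 96-well plates, cells were exposed to test compound for 48 hours across five concentrations. GI50 = concentration required for 50% inhibition of growth.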 Activity calls are given as the source filed them. Cut-off read from the data, not from the text of the source: active = GI50 up to about 1.1 µM and inactive = higher.
# Key:
# Test in all cases: NCI anticancer screen, dose series, 48 h
# A549 = tested on: A549
# NCI/ADR-RES = tested on: NCI/ADR-RES
# TK-10 = tested on: TK-10
# SF-295 = tested on: SF-295
# HCT-116 = tested on: HCT-116
# HCT-15 = tested on: HCT-15
# MDA-MB-231 = tested on: MDA-MB-231
# NCI-H226 = tested on: NCI-H226
# SK-OV-3 = tested on: SK-OV-3
# OVCAR-5 = tested on: OVCAR-5
# SK-MEL-2 = tested on: SK-MEL-2
# COLO 205 = tested on: COLO 205
# U-251 = tested on: U-251
# NCI-H460 = tested on: NCI-H460
# RPMI-8226 = tested on: RPMI-8226
# HCC 2998 = tested on: HCC 2998
# NCI-H23 = tested on: NCI-H23
# SK-MEL-28 = tested on: SK-MEL-28
# HOP-62 = tested on: HOP-62
# DU-145 = tested on: DU-145
# UACC-257 = tested on: UACC-257
# NCI-H522 = tested on: NCI-H522
# M14 = tested on: M14
# Hs-578T = tested on: Hs-578T
# OVCAR-8 = tested on: OVCAR-8
# SW-620 = tested on: SW-620
# ACHN = tested on: ACHN
# A498 = tested on: A498
# MDA-N = tested on: MDA-N
# OVCAR-3 = tested on: OVCAR-3
# HOP-92 = tested on: HOP-92
# SNB-75 = tested on: SNB-75
# MCF7 = tested on: MCF7
# SNB-19 = tested on: SNB-19
# MDA-MB-435 = tested on: MDA-MB-435
# HL-60 = tested on: HL-60
# K562 = tested on: K562
# PC-3 = tested on: PC-3
# IGROV-1 = tested on: IGROV-1
# LOX IMVI = tested on: LOX IMVI
# UO-31 = tested on: UO-31
# SR = tested on: SR
# T47D = tested on: T47D
# CAKI-1 = tested on: CAKI-1
# OVCAR-4 = tested on: OVCAR-4
# CCRF-CEM = tested on: CCRF-CEM
# SK-MEL-5 = tested on: SK-MEL-5
# SN12C = tested on: SN12C
# HT-29 = tested on: HT-29
# 786-0 = tested on: 786-0
# RXF 393 = tested on: RXF 393
# SF-268 = tested on: SF-268
# Malme-3M = tested on: Malme-3M
# EKVX = tested on: EKVX
# KM12 = tested on: KM12
# SF-539 = tested on: SF-539
# MOLT-4 = tested on: MOLT-4
compound,measurement,setting,value
COP(=O)(OC)C(Cc1c[nH]c2ccccc12)NC(=O)OCc1ccccc1 (stereo not drawn),GI50,A549,> 100 µM (inactive)
same,GI50,NCI/ADR-RES,> 100 µM (inactive)
same,GI50,TK-10,> 100 µM (inactive)
same,GI50,SF-295,> 100 µM (inactive)
same,GI50,HCT-116,> 100 µM (inactive)
same,GI50,HCT-15,> 100 µM
same,GI50,MDA-MB-231,> 100 µM (inactive)
same,GI50,NCI-H226,> 100 µM (inactive)
same,GI50,SK-OV-3,> 100 µM (inactive)
same,GI50,OVCAR-5,> 100 µM (inactive)
same,GI50,SK-MEL-2,> 100 µM (inactive)
same,GI50,COLO 205,> 100 µM (inactive)
same,GI50,U-251,> 100 µM (inactive)
same,GI50,NCI-H460,> 100 µM (inactive)
same,GI50,RPMI-8226,> 100 µM (inactive)
same,GI50,HCC 2998,> 100 µM (inactive)
same,GI50,NCI-H23,> 100 µM (inactive)
same,GI50,SK-MEL-28,> 100 µM (inactive)
same,GI50,HOP-62,> 100 µM (inactive)
same,GI50,DU-145,> 100 µM (inactive)
same,GI50,UACC-257,> 100 µM (inactive)
same,GI50,NCI-H522,> 100 µM (inactive)
same,GI50,M14,> 100 µM (inactive)
same,GI50,Hs-578T,> 100 µM (inactive)
same,GI50,OVCAR-8,> 100 µM (inactive)
same,GI50,SW-620,> 100 µM (inactive)
same,GI50,ACHN,> 100 µM (inactive)
same,GI50,A498,> 100 µM (inactive)
same,GI50,MDA-N,> 100 µM (inactive)
same,GI50,OVCAR-3,40.5 µM (inactive)
same,GI50,HOP-92,> 100 µM (inactive)
same,GI50,SNB-75,> 100 µM (inactive)
same,GI50,MCF7,> 100 µM (inactive)
same,GI50,SNB-19,> 100 µM (inactive)
same,GI50,MDA-MB-435,> 100 µM (inactive)
same,GI50,HL-60,> 100 µM (inactive)
same,GI50,K562,> 100 µM (inactive)
same,GI50,PC-3,> 100 µM (inactive)
same,GI50,IGROV-1,> 100 µM (inactive)
same,GI50,LOX IMVI,> 100 µM (inactive)
same,GI50,UO-31,> 100 µM (inactive)
same,GI50,SR,> 100 µM (inactive)
same,GI50,T47D,71.3 µM (inactive)
same,GI50,CAKI-1,> 100 µM (inactive)
same,GI50,OVCAR-4,91 µM (inactive)
same,GI50,CCRF-CEM,5.89 µM (inactive)
same,GI50,SK-MEL-5,> 100 µM (inactive)
same,GI50,SN12C,> 100 µM (inactive)
same,GI50,HT-29,> 100 µM (inactive)
C=CC1CN2CCC1CC2C(O)c1ccnc2ccc(OC)cc12 (stereo not drawn),GI50,NCI-H23,89.1 µM (inactive)
CCOC(=O)C(NC(=O)CC(C)C)(Nc1ccc(C(F)(F)F)cc1)C(F)(F)F (stereo not drawn),GI50,A549,> 100 µM (inactive)
same,GI50,NCI/ADR-RES,22.6 µM (inactive)
same,GI50,TK-10,40.5 µM (inactive)
same,GI50,SF-295,> 100 µM (inactive)
same,GI50,786-0,82.4 µM (inactive)
same,GI50,HCT-116,17.2 µM (inactive)
same,GI50,HCT-15,29 µM
same,GI50,NCI-H226,> 100 µM (inactive)
same,GI50,SK-OV-3,> 100 µM (inactive)
same,GI50,OVCAR-5,> 100 µM (inactive)
same,GI50,SK-MEL-2,15.7 µM (inactive)
same,GI50,U-251,28 µM (inactive)
same,GI50,NCI-H460,26.4 µM (inactive)
same,GI50,RPMI-8226,16.7 µM (inactive)
same,GI50,HCC 2998,32.8 µM (inactive)
same,GI50,RXF 393,35.4 µM (inactive)
same,GI50,NCI-H23,76.4 µM (inactive)
same,GI50,SK-MEL-28,> 100 µM (inactive)
same,GI50,HOP-62,36.1 µM (inactive)
same,GI50,DU-145,89.9 µM (inactive)
same,GI50,UACC-257,44.3 µM (inactive)
same,GI50,NCI-H522,16.7 µM (inactive)
same,GI50,M14,> 100 µM (inactive)
same,GI50,Hs-578T,25.5 µM (inactive)
same,GI50,SF-268,> 100 µM (inactive)
same,GI50,OVCAR-8,27.1 µM (inactive)
same,GI50,SW-620,57.8 µM (inactive)
same,GI50,ACHN,14.5 µM (inactive)
same,GI50,MDA-N,32.6 µM (inactive)
same,GI50,OVCAR-3,13.4 µM (inactive)
same,GI50,Malme-3M,96.4 µM (inactive)
same,GI50,HOP-92,30.3 µM (inactive)
same,GI50,SNB-75,6.31 µM (inactive)
same,GI50,EKVX,> 100 µM (inactive)
same,GI50,MCF7,> 100 µM (inactive)
same,GI50,SNB-19,> 100 µM (inactive)
same,GI50,MDA-MB-435,> 100 µM (inactive)
same,GI50,HL-60,21 µM (inactive)
same,GI50,K562,23.9 µM (inactive)
same,GI50,PC-3,20 µM (inactive)
same,GI50,IGROV-1,22.2 µM (inactive)
same,GI50,LOX IMVI,84.5 µM (inactive)
same,GI50,UO-31,61.7 µM (inactive)
same,GI50,SR,23.4 µM (inactive)
same,GI50,KM12,14.7 µM (inactive)
same,GI50,T47D,18.4 µM (inactive)
same,GI50,SF-539,> 100 µM (inactive)
same,GI50,MOLT-4,23 µM (inactive)
same,GI50,OVCAR-4,35.4 µM (inactive)
same,GI50,CCRF-CEM,35.6 µM (inactive)
same,GI50,SK-MEL-5,82.8 µM (inactive)
same,GI50,SN12C,> 100 µM (inactive)
same,GI50,HT-29,21 µM (inactive)
